Data as given in US20180214428A1, “3-(1H-INDOL-2-YL)-1H-PYRAZOLO[3,4-B]PYRIDINES AND THERAPEUTIC USES THEREOF” (Samumed, LLC, priority 2015, published 2018).
pEC50: −log10 of the molar value.

Tests used:
[1] = tested on: Wnt activity (Sp5-Luc reporter gene, SW480 colon carcinoma cells); assay: Screening assay for Wnt activity: Sp5-Luc reporter gene assay in SW480 cells; type: cell-based, human; conditions: Homo sapiens; for pEC50: overnight incubation; for inhibition at 10 µM: given for EC50 of >10 μM, read-out: percent inhibition at 10 μM
How it was run: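 SW480 cells stably transduced with a luciferase reporter driven by an Sp5 promoter of eight TCF/LEF sites were plated at 4,000 cells/well in 1% FBS medium. They were exposed overnight at 37° C to a 10-point 1:3 dilution series from 10 μM (0.1% DMSO). Luminescence was normalized to DMSO for four-parameter EC50, or percent inhibition at 10 μM.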

SW480 colon cancer cells = assay: Cell viability assay (CellTiter-Blue) in SW480 colon cancer cells; type: cell-based, human; conditions: Homo sapiens; for pEC50: 96 h, four days, CellTiter-Blue; for inhibition at 10 µM: given for EC50 of >10 μM, read-out: percent inhibition at 10 μM
How it was run: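 Four-day viability readout in SW480 cells: compound at 0.0045–10 μM (1:3 series), DMSO controls in eight replicates, CellTiter-Blue fluorescence after ~3 h. Values are regression-derived EC50s, or percent inhibition at 10 μM when EC50 exceeds 10 μM.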

[2] = tested on: primary human fibroblasts derived from IPF patients (LL29 cells); assay: Inhibition of the fibrotic process: αSMA staining in TGF-β1 treated LL29 fibroblasts; type: cell-based; conditions: Homo sapiens, Fibroblast; for pEC50: 96 h, TGF-β1 20 ng/mL, 4 days, % αSMA positive cells; for inhibition at 10 µM: given for EC50 of >10 μM, TGF-β1, αSMA, read-out: percent inhibition at 10 μM
How it was run: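 IPF patient-derived LL29 fibroblasts in 1% FBS medium got compound (11-point, 10 μM to 1.87 nM, 0.1% DMSO) plus TGF-β1 20 ng/mL, 4 days at 37° C. αSMA-positive live cells (SYTOX-excluded) were imaged, normalized to TGF-β1 controls and fitted for EC50; % inhibition at 10 μM given when EC50 >10 μM.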

Structure (SMILES) | pEC50 [1] | pEC50 (SW480 colon cancer cells) | inhibition at 10 µM (SW480 colon cancer cells) | pEC50 [2] | inhibition at 10 µM [1] | inhibition at 10 µM [2]
CS(=O)(=O)NCc1cc(F)cc(-c2cccc3[nH]c(-c4n[nH]c5ncc(-c6ccccn6)cc45)cc23)c1 [Compound 478, N-(3-Fluoro-5-(2-(5-(pyridin-2-yl)-1H-pyrazolo[3,4-b]pyridin-3-yl)-1H-indol-4-yl)benzyl)methanesulfonamide] | 5.41 | < 5.00 | 22.6% | 5.62 | – | –
c1ccc(CNCc2cncc(-c3cnc4[nH]nc(-c5cc6ncccc6[nH]5)c4c3)c2)cc1 [Compound 502, 1-(5-(3-(1H-Pyrrolo[3,2-b]pyridin-2-yl)-1H-pyrazolo[3,4-b]pyridin-5-yl)pyridin-3-yl)-N-benzylmethanamine] | 5.40 | < 5.00 | 9.8% | 5.51 | – | –
Fc1ccccc1-c1cccc2[nH]c(-c3n[nH]c4ncc(C5CCNCC5)cc34)cc12 [Compound 539, 3-(4-(2-Fluorophenyl)-1H-indol-2-yl)-5-(piperidin-4-yl)-1H-pyrazolo[3,4-b]pyridine] | < 5.00 | < 5.00 | 51.5% | 5.29 | 47.2% | –
CN(C)CCOc1cncc(-c2cnc3[nH]nc(-c4cc5c(-c6cccnc6)cccc5[nH]4)c3c2)c1 [Compound 565, N,N-Dimethyl-2-((5-(3-(4-(pyridin-3-yl)-1H-indol-2-yl)-1H-pyrazolo[3,4-b]pyridin-5-yl)pyridin-3-yl)oxy)ethan-1-amine] | < 5.00 | 5.42 | – | 5.71 | 34.5% | –
O=C(CC1CCNCC1)Nc1cncc(-c2cnc3[nH]nc(-c4cc5c(-c6ccccn6)cccc5[nH]4)c3c2)c1 [Compound 595, 2-(Piperidin-4-yl)-N-(5-(3-(4-(pyridin-2-yl)-1H-indol-2-yl)-1H-pyrazolo[3,4-b]pyridin-5-yl)pyridin-3-yl)acetamide] | 5.43 | < 5.00 | 11.3% | 5.25 | – | –
Oc1cncc(-c2cnc3[nH]nc(-c4cc5c(-c6cccs6)cccc5[nH]4)c3c2)c1 [Compound 711, 5-(3-(4-(Thiophen-2-yl)-1H-indol-2-yl)-1H-pyrazolo[3,4-b]pyridin-5-yl) pyridin-3-ol] | 5.01 | < 5.00 | 10.3% | 6.34 | – | –

Second part, led by results:

pEC50 [1] | pEC50 (SW480 colon cancer cells) | Structure (SMILES) | inhibition at 10 µM (SW480 colon cancer cells) | pEC50 [2] | inhibition at 10 µM [1] | inhibition at 10 µM [2]
< 5.00 | 6.95 | FC1(F)CCN(Cc2cncc(-c3cnc4[nH]nc(-c5cc6ncccc6[nH]5)c4c3)c2)C1 [Compound 504, 5-(5-((3,3-Difluoropyrrolidin-1-yl)methyl)pyridin-3-yl)-3-(1H-pyrrolo[3,2-b]pyridin-2-yl)-1H-pyrazolo[3,4-b]pyridine] | – | < 5.00 | 42.4% | 14.8%
< 5.00 | < 5.00 | Fc1cccc(-c2cccc3[nH]c(-c4n[nH]c5ncc(-c6cncc(OCc7ccccc7)c6)cc45)cc23)c1 [Compound 520, 5-(5-(Benzyloxy)pyridin-3-yl)-3-(4-(3-fluorophenyl)-1H-indol-2-yl)-1H-pyrazolo[3,4-b]pyridine] | 13.3% | 5.01 | 18.2% | –
5.48 | 5.43 | Cc1ncc(-c2cnc3[nH]nc(-c4cc5ccccc5[nH]4)c3c2)n1C [Compound 655, 5-(1,2-Dimethyl-1H-imidazol-5-yl)-3-(1H-indol-2-yl)-1H-pyrazolo[3,4-b]pyridine] | – | 5.41 | – | –
5.53 | 5.79 | CN(C)CCNc1cc(F)cc(-c2cccc3[nH]c(-c4n[nH]c5ncc(-c6cncc(OC7CCCCC7)c6)cc45)cc23)c1 [Compound 785, N^1-(3-(2-(5-(5-(Cyclohexyloxy)pyridin-3-yl)-1H-pyrazolo[3,4-b]pyridin-3-yl)-1H-indol-4-yl)-5-fluorophenyl)-N^2,N^2-dimethylethane-1,2-diamine] | – | 5.91 | – | –
6.15 | 5.84 | c1ccc(COc2cncc(-c3cnc4[nH]nc(-c5cc6ncccc6[nH]5)c4c3)c2)cc1 [Compound 1006, 5-(5-(Benzyloxy)pyridin-3-yl)-3-(1H-pyrrolo[3,2-b]pyridin-2-yl)-1H-pyrazolo[3,4-b]pyridine] | – | < 5.00 | – | 24.8%
